Values belong to the compound of their own block, whether it stands above or below them.
What was measured:
cyclophilin B = cyclophilin B (Homo sapiens, UniProt P23284); assay: Cyclophilin inhibition binding, competitive ELISA (Cyclophilin B); conditions: human recombinant cyclophilin, read-out: EC50 against cyclophilin B
Experimental: The cyclophilin inhibition binding of compounds disclosed herein was determined using a competitive ELISA adapted from the methods described by Quesniaux et al. (Eur. J Immunol., 1987, 17:1359-1365). Activated ester of succinyl spacers bound to D-Lys^8-cylosporine A (D-Lys^8-Cs) are coupled to bovine serum albumin (BSA) through D-lysyl residue in position 8. BSA is dissolved in 0.1 M borate buffer, pH 9.0 (4 mg in 1.4 ml). A hundredfold molar excess of D-Lys^8-Cs dissolved in dimethyl formamide (0.6 ml) is added drop wise to the BSA under vigorous stirring. […] After acetone precipitation of an aliquot of the conjugated protein, no covalently bound D-Lys^8-Cs remains in the acetone solution and the extent of cyclosporine covalent binding is calculated.
Microtiter Plates are coated with D-Lys^8-Cs-BSA conjugate (2 μg/ml in PBS for 24 hours at 4° C.). […] Cyclophilin is detected with anti-cyclophilin rabbit antiserum diluted in 1% BSA containing PBS and incubates overnight at 4° C. […] Bound rabbit antibodies are then detected by goat anti-rabbit IgG conjugated to alkaline phosphatase diluted in 1% BSA-PBS and allowed to incubate for 2 hours at 37° C. […] After incubation with 4-nitrophenyl phosphate (1 g/l in diethanolamine buffer, pH 9.8) for 1 to 2 hours at 37° C., the enzymatic reaction is measured spectrophotometrically at 405 nm using a spectrophotometer. […]

[1] = test system: Sprague-Dawley rats with induced Acute Kidney Injury; assay: Renal Ischemia-Reperfusion Induced Acute Kidney Injury in rats; format: in vivo, rat; conditions: for Creatinine: serum 24 hours after ligation/release
Experimental: With the exception of Group (i), i.e. the ‘sham group’, renal Ischemia-Reperfusion Induced Acute Kidney Injury (AKI) was induced in the rats by ligation of bilateral renal arteries for 30 min and then ligation was released. Animals in the control and treatment groups were administered intraperitoneal injections three times (1 h before ligation, 4 h and 8 h after ligation). Blood was taken from the animals 24 hours after the ligation/release procedure and analyzed for serum Creatinine and Blood Urea Nitrogen (BUN) concentrations, as a measure of kidney injury.

Cyclophilin A = Cyclophilin A (Homo sapiens, UniProt P62937); assay: Cyclophilin inhibition binding, competitive ELISA (Cyclophilin A); conditions: human recombinant cyclophilin, read-out: CypA EC50
Chain of Cyclophilin A (P62937 whole entry): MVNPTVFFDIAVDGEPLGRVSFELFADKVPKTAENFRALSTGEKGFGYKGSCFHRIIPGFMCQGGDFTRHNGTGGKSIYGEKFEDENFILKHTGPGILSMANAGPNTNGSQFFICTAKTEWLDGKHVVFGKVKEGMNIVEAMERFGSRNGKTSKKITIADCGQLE
Experimental: (§1) The cyclophilin inhibition binding of compounds disclosed herein was determined using a competitive ELISA adapted from the methods described by Quesniaux et al. (Eur. J Immunol., 1987, 17:1359-1365). Activated ester of succinyl spacers bound to D-Lys^8-cylosporine A (D-Lys^8-Cs) are coupled to bovine serum albumin (BSA) through D-lysyl residue in position 8. BSA is dissolved in 0.1 M borate buffer, pH 9.0 (4 mg in 1.4 ml). A hundredfold molar excess of D-Lys^8-Cs dissolved in dimethyl formamide (0.6 ml) is added drop wise to the BSA under vigorous stirring. The coupling reaction is performed for 2 to 3 hours at room temperature under mild stirring and the conjugate is extensively dialyzed against phosphate-buffered saline (PBS, pH 7.4).
(§2) Microtiter Plates are coated with D-Lys^8-Cs-BSA conjugate (2 μg/ml in PBS for 24 hours at 4° C.). Plates are washed with Tween®/PBS and with PBS alone. To block nonspecific binding, 2% BSA/PBS (pH 7.4) is added to the wells and allowed to incubate for 2 hours at 37° C. […] Cyclophilin is detected with anti-cyclophilin rabbit antiserum diluted in 1% BSA containing PBS and incubates overnight at 4° C. […] Bound rabbit antibodies are then detected by goat anti-rabbit IgG conjugated to alkaline phosphatase diluted in 1% BSA-PBS and allowed to incubate for 2 hours at 37° C. […]

Cyclophilin D = Cyclophilin D (Homo sapiens, UniProt P30405); assay: Cyclophilin inhibition binding, competitive ELISA (Cyclophilin D); conditions: human recombinant cyclophilin, read-out: CypD EC50
Chain of Cyclophilin D (P30405 30-207): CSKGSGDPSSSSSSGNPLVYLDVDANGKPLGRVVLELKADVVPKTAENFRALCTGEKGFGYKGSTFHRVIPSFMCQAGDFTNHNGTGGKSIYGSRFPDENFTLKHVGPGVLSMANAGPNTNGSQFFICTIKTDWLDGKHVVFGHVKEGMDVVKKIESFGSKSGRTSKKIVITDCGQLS
Experimental: as §1, §2

Chain of cyclophilin B (P23284 34-216): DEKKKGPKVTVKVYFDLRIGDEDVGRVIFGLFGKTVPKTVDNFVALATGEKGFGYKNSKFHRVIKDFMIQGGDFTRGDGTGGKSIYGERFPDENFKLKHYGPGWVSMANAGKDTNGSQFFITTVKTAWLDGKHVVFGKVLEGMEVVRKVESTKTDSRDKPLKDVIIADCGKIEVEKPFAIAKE

SMILES: C/C=C/C[C@@H](C)[C@@H](O)[C@H]1C(=O)N[C@@H](CC)C(=O)N(C)[C@H](OCCN(C)C)C(=O)N(C)[C@@H](CC(C)C)C(=O)N[C@@H](C(C)C)C(=O)N(C)[C@@H](CC(C)C)C(=O)N[C@@H](C)C(=O)N[C@H](C)C(=O)N(C)[C@@H](CC(C)C)C(=O)N(C)[C@@H](CC(C)C)C(=O)N(C)[C@@H](C(C)C)C(=O)N1C [Compound 1]
- EC50 (cyclophilin B): < 100 nM

SMILES: C/C=C/C[C@@H](C)[C@@H](O)[C@H]1C(=O)N[C@@H](CC)C(=O)N(C)CC(=O)N(C)[C@@H](CC(C)C)C(=O)N[C@@H](C(C)C)C(=O)N(C)[C@@H](CC(C)C)C(=O)N[C@@H](C)C(=O)N[C@H](C)C(=O)N(C)[C@@H](CC(C)C)C(=O)N(C)[C@@H](CC(C)C)C(=O)N(C)[C@@H](C(C)C)C(=O)N1C [CsA, Cyclosporin A]
- Creatinine ([1]; 3 mg/kg i.p. three times): 115 µmol/L
- Blood Urea Nitrogen ([1]; 10 mg/kg i.p. three times, 24 hours after ligation/release): 42 mmol/L
- Creatinine ([1]; 10 mg/kg i.p. three times): 290 µmol/L

- EC50 (Cyclophilin A): 61 nM
- EC50 (Cyclophilin D): 2170 nM
SMILES: C/C=C/C[C@@H](C)[C@@H](O)[C@H]1C(=O)N[C@@H](CC)C(=O)N(C)[C@H](OCCNC)C(=O)N(C)[C@@H](CC(C)C)C(=O)N[C@@H](C(C)C)C(=O)N(C)[C@@H](CC(C)C)C(=O)N[C@@H](C)C(=O)N[C@H](C)C(=O)N(C)[C@@H](CC(C)C)C(=O)N(C)[C@@H](CC(C)C)C(=O)N(C)[C@@H](C(C)C)C(=O)N1C [Entry 1]
